Assay results: US5573908A, “Adrenergic receptor as a proto-oncogene” (Duke University, priority 1993, dated 1996)
Positions count from the first letter of the chain named. Where “and” joins values, the source holds several entries; their conditions need not be identical. Equal values may be shown once. Entries after “also recorded” stand apart in the source; their conditions may differ. Read-outs that look alike come from different tables or passages of the source. One block for each compound: values may come before it.

What was measured:
α1B ADR = target: T1, α1B ADR (Mesocricetus auratus, UniProt P18841); test: Ligand binding on membranes of RAT-1 fibroblast cell lines expressing the α1B ADR; design: species or system hamster; conditions: two clones
T1 construct: expressed in transfected cells; host or cells: RAT-1 fibroblasts (vector pZIP-NeoSV(X)1), focus-derived, G418-selected lines
T1 sequence (P18841 1-515): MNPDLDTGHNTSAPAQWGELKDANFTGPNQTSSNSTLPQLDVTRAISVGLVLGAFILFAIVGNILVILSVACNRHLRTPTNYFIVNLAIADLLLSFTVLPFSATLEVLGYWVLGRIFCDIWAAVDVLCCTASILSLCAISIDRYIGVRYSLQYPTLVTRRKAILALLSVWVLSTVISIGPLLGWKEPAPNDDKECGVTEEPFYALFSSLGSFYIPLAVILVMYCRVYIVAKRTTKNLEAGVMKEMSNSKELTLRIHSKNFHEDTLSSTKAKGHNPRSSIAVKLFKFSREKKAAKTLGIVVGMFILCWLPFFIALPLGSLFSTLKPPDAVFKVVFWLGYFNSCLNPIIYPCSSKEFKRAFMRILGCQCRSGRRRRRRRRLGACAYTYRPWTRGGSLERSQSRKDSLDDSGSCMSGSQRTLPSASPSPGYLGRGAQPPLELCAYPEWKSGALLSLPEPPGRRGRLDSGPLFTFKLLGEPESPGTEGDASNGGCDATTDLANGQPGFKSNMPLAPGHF
Protocol: (§1) In Table 3, RAT-1 fibroblast cell lines transfected with expression vector alone or derived from transformed foci (α1B ADR or α1B ADR mutant) were selected with G418 (300 μg/ml). Ligand binding was performed on membranes prepared from two clones of each in accordance with known techniques (S. Cotecchia et al., Life Sci. 37, 2389 (1986)). For saturation binding analysis, [^125 ] HEAT concentrations ranged from 10 to 500 pM, nonspecific binding was determined using 1 μM prazosin; in competition experiments, the radioligand concentration was 100 pM. Ligand binding parameters were determined using computerized iterative nonlinear regression analysis (P. Munson, Methods in Enzymol. 92, 5432 (1983)). For assessment of receptor coupling to PI hydrolysis, cells were plated in 30 mm dishes, and labeled overnight with 3 μCi/ml of myo-[2-^3 II(N)]-inositol (1Ci=37 GBq; NEN Research Products) in DMEM containing 3.3% FBS in accordance with known techniques (S. Cotecchia et al., Proc. Natl. Acad. Sci. USA 87, 2896 (1990)). After 40 minute stimulation of cells with 10 μM norepinephrine (NE), inositol phosphates were extracted, and separated on AG 1-X8 anion exchange columns (BioRad Labs) in accordance with known techniques (S. Cotecchia et al., Proc. Natl. Acad. Sci. USA 87, 2896 (1990)). Total inositol phosphates were eluted with 1M ammonium formate/0.1M formic acid. Rmax indicates the percentage increase of total labeled inositol phosphates over basal levels following NE stimulation.

α1B ADR mutant = target: T2, α1B ADR mutant (Mesocricetus auratus, UniProt P18841, A293L/K290H/R288K); test: Ligand binding on membranes of RAT-1 fibroblast cell lines expressing the α1B ADR mutant; design: species or system hamster; conditions: two clones
T2 construct: expressed in transfected cells; host or cells: RAT-1 fibroblasts (vector pZIP-NeoSV(X)1), focus-derived, G418-selected lines
T2 sequence (P18841 1-515 R288K/K290H/A293L): T1 sequence (P18841 1-515) with R288K, K290H, A293L
Protocol: as §1

[1] = system: RAT-1 fibroblasts transfected with α1B -ADR c-DNA; test: Focus formation in RAT-1 fibroblasts transfected with α1B-ADR c-DNA; format: cell-based; conditions: focus-derived RAT-1 cell lines; data not shown
Protocol: Transfection was carried out as follows: RAT-1 fibroblasts were seeded at a density of 2×10^5 cells in Dulbecco's modified Eagle's medium (DMEM) (Gibco) containing 5% fetal bovine serum (FBS) in 100 mm dishes. […] After 16 hours, the DNA precipitate was removed, the cells washed and grown for 24 hours in complete medium. Cells were split 1:5, allowed to attach overnight and then cultured in DMEM with 5% FBS alone, supplemented with 10 μM norepinephrine (NE) or G418 (300 μg/ml). Dishes were supplemented with NE daily, and fed every 3 days with fresh medium.

[2] = system: RAT-1 fibroblast cell line derived from a single transformed focus expressing the α1B -ADR; test: Morphology of focus-derived RAT-1 fibroblast cell line expressing the α1B-ADR; format: cell-based; conditions: 10 μM NE and 1 μM prazosin, 36 hours
[3] = saturation binding 10 to 500 pM, nonspecific binding with 1 μM prazosin, read-out: [125I] HEAT Kd
[4] = serum free medium, data not shown

- Kd (α1B ADR; [3]): 0.0441 nM and 0.0383 nM
- [125I] HEAT Bmax (α1B ADR; saturation binding): 5.1 pmol/mg and 2.7 pmol/mg
- Kd (α1B ADR mutant; [3]): 0.0379 nM and 0.0463 nM
- [125I] HEAT Bmax (α1B ADR mutant; saturation binding): 2.2 pmol/mg and 2.6 pmol/mg
Compound: O=C1c2ccccc2CCC1CNCCc1ccc(O)c([125I])c1 (stereo not shown) [[^125 I] HEAT, 2{b-(4-hydroxy-3-[^125 I]iodophenyl)ethylaminomethyl}-tetralone]

Compound: c1ccc2c(c1)OCC(C1=NCCN1)O2 (stereo not shown) [idazoxan]
- blockade of NE-induced increase in DNA synthetic activity (α1B -ADR; [4]): not

Compound: COc1cc2nc(N3CCN(C(=O)c4ccco4)CC3)nc(N)c2cc1OC [prazosin]
- inhibition of agonist-dependent focus formation by concurrent antagonist [1]: could be inhibited
- effect of concurrent antagonist on agonist-induced transformation (morphology) [2]: blocked agonist-induced transformation; also recorded: reverted the cells to the untransformed phenotype
- blockade of NE-induced increase in DNA synthetic activity (α1B -ADR): could be blocked

Compound: CC(C)NCC(O)COc1cccc2ccccc12 (stereo not shown) [propranolol]
- blockade of NE-induced increase in DNA synthetic activity (α1B -ADR; [4]): not

Compound: COC(=O)[C@@H]1[C@H]2C[C@H]3c4[nH]c5ccccc5c4CCN3C[C@@H]2CC[C@@H]1O [yohimbine]
- blockade of NE-induced increase in DNA synthetic activity (α1B -ADR): not
